Key:
[1] = molecular target: T1, hFP receptor (hFP membrane from transfected COS-7 cells) (Homo sapiens, UniProt P43088); test: Radioligand Binding Assay; conditions: competition with (3H) PGF2 on hFP membrane; read-out: IC50 the PGF
T1 construct: expressed in transfected cells; host or cells: COS-7 cells (transient transfection, LipofectAMINE); membrane preparation
Description: IC50 of a PGF can be determined relative to PGF2α using the Radioligand Binding Assay. As a control, the IC50 for PGF2α itself should be no lower than 1.0 nM and no higher than 5.0 nM.
In this assay, COS-7 cells are transiently transfected with the hFP recombinant plasmid using LipofectAMINE Reagent. Forty-eight hours later, the transfected cells are washed with Hank's Balanced Salt Solution (HBSS, without CaCl2, MgCl2, MgSO4, or phenol red). The cells are detached with versene, and HBSS is added. The mixture is centrifuged at 200 g for 10 minutes, at 4° C. to pellet the cells. The pellet is resuspended in Phosphate-Buffered Saline-EDTA buffer (PBS; 1 mM EDTA; pH 7.4; 4° C.). The cells are disrupted by nitrogen cavitation (Parr model 4639), at 800 psi, for 15 minutes at 4° C. The mixture is centrifuged at 1000 g for 10 minutes at 4° C. The supernatant is centrifuged at 100,000 g for 60 minutes at 4° C. The pellet is resuspended to 1 mg protein/mL TME buffer (50 mM Tris; 10 mM MgCl2; 1 mM EDTA; pH 6.0; 4° C.) based on protein levels measured using the Pierce BCA Protein Assay kit. The homogenate is mixed for 10 seconds using a Kinematica POLYTRON® (available from KINEMATICA AG, Luzernerstrasse 147A CH-6014 Littau, Switzerland). The membrane preparations are then stored at −80° C., until thawed for assay use.
The receptor competition binding assays are developed in a 96 well format. Each well contains […] of hFP membrane, 5 nM (3H) PGF2, and the various competing compounds in a total volume of […]. The plates are incubated at 23° C. for 1 hour. The incubation is terminated by rapid filtration using the Packard Filtermate 196 harvester through Packard UNIFILTER® GF/B filters (available from Packard Instrument Co., Inc. of Downers Grove Ill.) pre-wetted with TME buffer. The filter is washed four times with TME buffer. […] The plates are read on a Packard TOPCOUNT® Microplate Scintillation Counter (also available from Packard Instrument Co., Inc.)

[2] = system: C3H mice (conversion from telogen to anagen, skin color grade); test: Telogen Conversion Assay; type: in vivo; conditions: topical; for Average Grades, 23 Days: visual skin color grade 0 (whitish) to 4 (dark blue, full anagen), average of 7 mice after 23 days
Description: PGF's are tested for their potential to grow hair using the Telogen Conversion Assay. The Telogen Conversion Assay measures the potential of a PGF to convert mice in the resting stage of the hair growth cycle (“telogen”), to the growth stage of the hair growth cycle (“anagen”).
Without intending to be limited by theory, there are three principal phases of the hair growth cycle: anagen, catagen, and telogen. It is believed that there is a longer telogen period in C3H mice (Harlan Sprague Dawley, Inc., Indianapolis, Ind.) from approximately 40 days of age until about 75 days of age, when hair growth is synchronized. It is believed that after 75 days of age, hair growth is no longer synchronized. Wherein about 40 day-old mice with dark fur (brown or black) are used in hair growth experiments, melanogenesis occurs along with hair (fur) growth wherein the topical application of hair growth inducers are evaluated. The Telogen Conversion Assay herein is used to screen PGF's for potential hair growth by measuring melanogenesis.
Three groups of 44 day-old C3H mice are used: a vehicle control group, a positive control group, and a test PGF group, wherein the test PGF group is administered a PGF used in the method of this invention. The length of the assay is 24 days with 15 treatment days (wherein the treatment days occur Mondays through Fridays). Day 1 is the first day of treatment. Typical dosage concentrations are set forth in Table 1, however the skilled artisan will readily understand that such concentrations may be modified.
The mice are treated topically Monday through Friday on their lower back (base of tail to the lower rib). A pipettor and tip are used to deliver 400 μL to each mouse's back. The 400 μL application is applied slowly while moving hair on the mouse to allow the application to reach the skin.
While each treatment is being applied to the mouse topically, a visual grade of from 0 to 4 will be given to the skin color in the application area of each animal. As a mouse converts from telogen to anagen, its skin color will become more bluish-black.

T1 sequence (P43088 whole entry): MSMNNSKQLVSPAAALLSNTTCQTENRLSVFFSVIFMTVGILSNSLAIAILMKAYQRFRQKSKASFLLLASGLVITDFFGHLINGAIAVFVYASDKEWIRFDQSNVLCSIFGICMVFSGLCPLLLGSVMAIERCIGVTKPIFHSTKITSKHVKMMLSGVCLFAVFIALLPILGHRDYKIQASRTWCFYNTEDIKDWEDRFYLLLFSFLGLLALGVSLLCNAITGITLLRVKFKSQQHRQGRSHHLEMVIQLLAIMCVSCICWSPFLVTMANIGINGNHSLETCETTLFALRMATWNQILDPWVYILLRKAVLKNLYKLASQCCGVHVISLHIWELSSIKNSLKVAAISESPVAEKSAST

Row | Compound | IC50 [1] [nM] | hair growth (result in words) [2] | Average Grades, 23 Days [2] | Average Grades, 25 Days ([2]; visual skin color grade 0 to 4, average of 7 mice after 25 days) | Average Grades, 26 Days ([2]; visual skin color grade 0 to 4, average of 7 mice after 26 days)
1 | CC(C)OC(=O)CCCCCC[C@@H]1[C@@H](CCC(O)CSc2ccccc2)[C@H](O)C[C@@H]1O (stereo partly drawn) [Example 1] | – | grew hair | 0.4 | 0.1 | 0.7
2 | O=C(O)CCCCCC[C@@H]1[C@@H](CCC(O)CSc2cccc(F)c2)[C@H](O)C[C@@H]1O (stereo partly drawn) [Example 3-1] | 7 | – | – | – | –
3 | COC(=O)CCCCCC[C@@H]1[C@@H](CCC(O)CSc2ccccc2Br)[C@H](O)C[C@@H]1O (stereo partly drawn) [Example 2] | – | grew hair | 0.1 | – | –

The next lines start with results.

Row | IC50 [1] [nM] | Compound | hair growth (result in words) [2] | Average Grades, 23 Days [2] | Average Grades, 25 Days ([2]; visual skin color grade 0 to 4, average of 7 mice after 25 days) | Average Grades, 26 Days ([2]; visual skin color grade 0 to 4, average of 7 mice after 26 days)
4 | 24 | CC(O)(CC[C@@H]1[C@@H](CCCCCCC(=O)O)[C@@H](O)C[C@H]1O)CSc1ccccc1 (stereo partly drawn) [Example 3-3] | – | – | – | –
5 | 10 | O=C(O)CCCCCC[C@@H]1[C@@H](CCC(O)CSc2ccccc2F)[C@H](O)C[C@@H]1O (stereo partly drawn) [Example 3-2] | – | – | – | –
